Test results reported in US4711952A, “Serum thymic factor peptide analogs and process for the preparation thereof” (SPOFA, spojene podniky pro zdravotnickouvyrobu, priority 1984, dated 1987).
Non-standard residues stand in square brackets, D forms with d. Residues, ends and D or L forms follow the SMILES beside them. No end group written: not given here. pGlu = O=C1CC[C@@H](C(=O)O)N1

Test system: Flymphocytes
Assay: Recovery assay of Flymphocytes (in vitro)
Format: cell-based
Conditions: positive for immunostimulation and negative for immunosuppression
From the text: As is evident from the general formula I in comparison with the above structure of the natural substance, the compounds of the present invention, besides optional shortening at the N-terminus, comprise a C-terminal augmentation predominantly by an additional amino-acid residue or residues bearing an amide moiety.

Compound | Recovery Assay of Flymbocytes differential count
C[C@H](NC(=O)[C@@H]1CCC(=O)N1)C(=O)N[C@@H](CCCCN)C(=O)N[C@@H](CO)C(=O)N[C@@H](CCC(N)=O)C(=O)NCC(=O)NCC(=O)N[C@@H](CO)C(=O)N[C@@H](CC(N)=O)C(=O)NCC(N)=O ([pGlu]AKSQGGSNG-NH2) | 6.31%
C[C@H](NC(=O)[C@@H]1CCC(=O)N1)C(=O)N[C@@H](CCCCN)C(=O)N[C@@H](CO)C(=O)N[C@@H](CCC(N)=O)C(=O)NCC(=O)NCC(=O)N[C@@H](CO)C(=O)N[C@@H](CC(N)=O)C(=O)N[C@@H](Cc1ccccc1)C(N)=O [p-Glu--D-Gln--E--PheNH2, Pyroglutamyl-alanyl-lysyl-seryl-glutaminyl-glycyl-glycyl-seryl-asparaginyl-phenylalanine amide] ([pGlu]AKSQGGSNF-NH2) | 7.54%
NC(=O)CNC(=O)[C@H](CC(N)=O)NC(=O)[C@H](CO)NC(=O)CNC(=O)CNC(=O)[C@@H]1CCC(=O)N1 [p-Glu--E--GlyNH2, Pyroglutamyl-glycyl-glycyl-seryl-asparaginyl-glycine amide] ([pGlu]GGSNG-NH2) | 6.35%
NC(=O)C[C@H](NC(=O)[C@H](CO)NC(=O)CNC(=O)CNC(=O)[C@@H]1CCC(=O)N1)C(=O)N[C@@H](Cc1ccccc1)C(N)=O [p-Glu--E--PheNH2, Pyroglutamyl-glycyl-glycyl-seryl-asparaginyl-phenylalanine amide] ([pGlu]GGSNF-NH2) | 2.89%
AKSQGGSNF-NH2 [D-Gln--E--PheNH2, Alanyl-lysyl-seryl-glutaminyl-glycyl-glycyl-seryl-asparaginyl-phenylalanine amide] | 16.09%
AKSQGGSNG-NH2 [D-Gln--E--GlyNH2, Alanyl-lysyl-seryl-glutaminyl-glycyl-glycyl-seryl-asparaginyl-glycine amide] | 12.75%
